This is an account of results in PubChem BioAssay (NCI).

Several values for one entry are separate records, joined by “and”; a condition that tells them apart may be missing. Equal values may be shown once.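 In this assay, cells in 96-well plates receive the compound at five concentrations for 48 hours. Endpoints are linearly interpolated between the surrounding concentrations. Abbreviation: GI50, concentration required for 50% inhibition of growth. TGI is the concentration that stops growth completely.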

Among the test systems are 786-0 renal; ACHN renal; CAKI-1 renal; IGROV1 ovarian; MOLT-4 leukemia; OVCAR-3 ovarian; RXF 393 renal; SF-295 CNS; TK-10 renal; UO-31 renal.
Experiment in all cases: growth of human tumour cells (NCI), 48 h

For the compound `O=C1C=C(Nc2ccccc2)c2ncccc2C1=O`, the GI50 was 1520 nM in the assay with 786-0 renal; 349 nM in the assay on ACHN renal; 1390 nM in the assay on CAKI-1 renal; 904 nM in the assay with IGROV1 ovarian; 1020 nM in the assay with MOLT-4 leukemia; 280 nM with OVCAR-3 ovarian. The GI50 was 1400 nM in the assay on RXF 393 renal, 1310 nM with SF-295 CNS, 1820 nM in the assay with TK-10 renal and 333 nM with UO-31 renal. Also, the TGI in the assay on 786-0 renal was found to be 3050 nM; in the assay with ACHN renal it was 1220 nM; in the assay on CAKI-1 renal it was 2700 nM; with IGROV1 ovarian it was 2580 nM; with MOLT-4 leukemia, 3780 nM; with OVCAR-3 ovarian, 825 nM. The TGI is 2720 nM with RXF 393 renal, 2600 nM with SF-295 CNS, 3280 nM with TK-10 renal and 1320 nM with UO-31 renal.

With `O=S(=O)(/C=C/C=C/S(=O)(=O)c1ccccc1)c1ccccc1`, the GI50 in the assay with 786-0 renal was 956 nM; in the assay with CAKI-1 renal, 1040 nM; in the assay on IGROV1 ovarian, 1390 nM; in the assay on OVCAR-3 ovarian, 1460 nM; in the assay with TK-10 renal, 1350 nM. The TGI in the assay on 786-0 renal is 1100 nM and 2220 nM; with ACHN renal it was 2060 nM and 2050 nM; with CAKI-1 renal, 2540 nM and 2250 nM; in the assay with IGROV1 ovarian, 3570 nM; in the assay with MOLT-4 leukemia it was 1850 nM; in the assay on OVCAR-3 ovarian it was 1820 nM and 2900 nM. Further, the TGI was 809 nM and 1450 nM with RXF 393 renal; 22200 nM in the assay on SF-295 CNS; 2950 nM and 2690 nM with TK-10 renal; 2920 nM and 3320 nM in the assay on UO-31 renal.

`CCc1ccc(C2=C/C(=C/c3ccc(Cl)cc3)C(=O)N2CCc2ccc(S(N)(=O)=O)cc2)cc1`: the GI50 in the assay on 786-0 renal is 1860 nM; with ACHN renal it was 1940 nM; with CAKI-1 renal, 2910 nM; with IGROV1 ovarian, 3260 nM; with MOLT-4 leukemia it was 2190 nM; with OVCAR-3 ovarian, 2120 nM. Moreover, the GI50 was 1740 nM with RXF 393 renal, 1770 nM in the assay on SF-295 CNS, 2210 nM in the assay with TK-10 renal and 1550 nM in the assay with UO-31 renal. The TGI in the assay with 786-0 renal is 3530 nM; in the assay on ACHN renal it was 4230 nM; with CAKI-1 renal, 12400 nM; with IGROV1 ovarian, 12700 nM; in the assay with MOLT-4 leukemia, 6870 nM; in the assay on OVCAR-3 ovarian, 4600 nM. The TGI in the assay with RXF 393 renal came to 3790 nM; in the assay on SF-295 CNS, 3720 nM; in the assay with TK-10 renal, 7370 nM; in the assay on UO-31 renal it was 4530 nM.

`C/C(CC(=O)CCCC(=O)Nc1ccc(Cl)cc1Cl)=N/NC(=O)CC#N`: the TGI in the assay with 786-0 renal, in the assay with ACHN renal, in the assay with CAKI-1 renal, in the assay on IGROV1 ovarian, in the assay with MOLT-4 leukemia and with OVCAR-3 ovarian was greater than 100000 nM in each case. Moreover, the TGI in the assay with RXF 393 renal, in the assay on SF-295 CNS, in the assay with TK-10 renal and in the assay on UO-31 renal was greater than 100000 nM throughout.

For `CCCCCCCC[N+](C)(C)Cc1ccc(C[N+](C)(C)CCCCCCCC)cc1`, the TGI was greater than 100000 nM with 786-0 renal; greater than 100000 nM in the assay on ACHN renal; greater than 100000 nM with CAKI-1 renal; 65100 nM in the assay with IGROV1 ovarian; greater than 100000 nM in the assay on MOLT-4 leukemia; greater than 100000 nM in the assay on OVCAR-3 ovarian. Besides, the TGI with RXF 393 renal, in the assay with SF-295 CNS, with TK-10 renal and in the assay on UO-31 renal was greater than 100000 nM each time.

`Cc1cc(N(CCC#N)CCC#N)ccc1/C=C1/CN(N2C(=O)/C(=C/c3ccc(N(CCC#N)CCC#N)cc3C)N=C2c2ccccc2)C(c2ccccc2)=N1`: the TGI with 786-0 renal, with ACHN renal, in the assay with CAKI-1 renal, with IGROV1 ovarian, with MOLT-4 leukemia and in the assay on OVCAR-3 ovarian was greater than 100000 nM throughout. Also, the TGI with RXF 393 renal was 76800 nM; in the assay with SF-295 CNS, greater than 100000 nM; in the assay with TK-10 renal it was 75900 nM; with UO-31 renal, greater than 100000 nM.

Take `CCOC(=O)[C@H](CSSc1ncnc2cc[nH]c12)NC(=O)[C@@H](C)c1ccc2cc(OC)ccc2c1`: the GI50 in the assay with 786-0 renal was 347 nM; with ACHN renal it was 2100 nM; with CAKI-1 renal, 378 nM; in the assay with IGROV1 ovarian it was 5080 nM; with MOLT-4 leukemia it was 388 nM; with OVCAR-3 ovarian, 125 nM. In addition, the GI50 in the assay on RXF 393 renal is 1620 nM; in the assay with SF-295 CNS, 438 nM; in the assay with TK-10 renal, 265 nM; in the assay with UO-31 renal it was 736 nM. The TGI in the assay on 786-0 renal, in the assay on ACHN renal, in the assay with CAKI-1 renal, in the assay on IGROV1 ovarian, in the assay on MOLT-4 leukemia and in the assay with OVCAR-3 ovarian was greater than 100000 nM in each case. Further, the TGI is greater than 100000 nM with RXF 393 renal, greater than 100000 nM with SF-295 CNS, greater than 59600 nM in the assay on TK-10 renal and greater than 100000 nM in the assay on UO-31 renal.
